Measurements from publication PMC11923649, “Novel C-2 Aromatic Heterocycle-Substituted Triterpenoids Inhibit Hedgehog Signaling in GLI1 Overexpression Cancer Cells” (ACS Omega, 2025).

Legend:
CEM-DNR = experiment: MTS cytotoxicity assay, 72 h, CEM-DNR; format: cell-based; details: Homo sapiens
Protocol: Based on the preliminary results and tests of a larger library of known triterpenoids, a small set of 2-substituted lupane and 18α-oleanane derivatives was designed and synthesized. As the first step, the cytotoxic activity of the synthesized derivatives was assessed using an MTS assay following 72 h of treatment (Table 1). Selected cell lines A549 (lung adenocarcinoma) and DU-145 (prostate cancer) are both dependent on Hh signaling. In addition, K562 (chronic myelogenous leukemia) was included as a cell line sensitive to Hh inhibitors[32] and a type of hematological malignancy with active Hh signaling.[33] MRC-5 lung fibroblasts and BJ human skin fibroblasts cell lines were used to evaluate the toxicity against nontumor cells. Compounds were also tested using the standard panel of other cancer cell lines, as described in our earlier work (Table 1).[27] […]

DU-145 (prostate cancer) = experiment: MTS cytotoxicity assay, 72 h, DU-145; format: cell-based, human; details: Homo sapiens, DU-145, 72 h
Protocol: (§1) Based on the preliminary results and tests of a larger library of known triterpenoids, a small set of 2-substituted lupane and 18α-oleanane derivatives was designed and synthesized. As the first step, the cytotoxic activity of the synthesized derivatives was assessed using an MTS assay following 72 h of treatment (Table 1). Selected cell lines A549 (lung adenocarcinoma) and DU-145 (prostate cancer) are both dependent on Hh signaling. In addition, K562 (chronic myelogenous leukemia) was included as a cell line sensitive to Hh inhibitors[32] and a type of hematological malignancy with active Hh signaling.[33] MRC-5 lung fibroblasts and BJ human skin fibroblasts cell lines were used to evaluate the toxicity against nontumor cells. Compounds were also tested using the standard panel of other cancer cell lines, as described in our earlier work (Table 1).[27]
(§2) The human prostate tumor-derived cell line DU145 was obtained from ATCC (American Type Culture Collection) and cultured in RPMI 1640 (Roswell Park Memorial Institute) medium supplemented with 10% (v/v) fetal bovine serum (FBS). Human prostate tumor-derived LNCaP cells were obtained from ATCC and cultured in RPMI 1640 medium supplemented with 10% FBS. The human nonsmall cell lung carcinoma (NSCLC)-derived cell line HOP-62 was obtained from the DSMZ (German Collection of Microorganisms and Cell Cultures) and cultured in RPMI 1640 medium supplemented with 10% FBS. The human nonsmall cell lung carcinoma-derived cell line NCI-H322 was obtained from ECACC (European Collection of Authenticated Cell Cultures) and cultured in RPMI 1640 medium supplemented with 10% FBS. The human nonsmall cell lung carcinoma-derived cell line NCI-H522 was obtained from ATCC and cultured in RPMI 1640 medium supplemented with 10% FBS. The human lung tumor-derived cell line A549 was obtained from ATCC and cultured in Dulbecco’s Modified Eagle’s Medium (DMEM) supplemented with 10% FBS. The human medulloblastoma-derived cell line DAOY was obtained from ATCC and cultured in Eagle’s Minimum Essential Medium (EMEM) supplemented with 10% FBS. The human glioblastoma-derived cell line T98G was obtained from ATCC and cultured in EMEM medium supplemented with 10% FBS, 1 mmol/L sodium pyruvate, and 1 mmol/L nonessential amino acid mixture. All the above-mentioned cell lines were cultured at 37 °C in an atmosphere of 5% CO2 with 95% humidity. The cytotoxicity MTS assays were performed using MTS (3-(4,5-dimethylthiazol-2-yl)-5-(3-carboxymethoxyphenyl)-2-(4-sulfophenyl)-2H-tetrazolium) tetrazolium salt. Briefly, cells were seeded in a 384-well transparent plate in a volume of 25 μL and a concentration of 15,000 cells/mL (DU145, LNCaP, HOP-62, A549, DAOY, T98G) or 30,000 cells/mL (NCI-H322, NCI-H522). The next day, cells were exposed to compounds in a concentration range of 50–0.0975 μmol/L (dilution factor 2) and cultured in the presence of the compounds for 72 h. After 72 h, 5 μL of MTS/phenazine methosulfate solution was pipetted into each well and incubation continued for 1–4 h. Finally, the absorbance at 490 nm was measured using an EnVision multifunctional modular reader (PerkinElmer). The IC50 value was determined using Dotmatics software.

[1] = test system: K562 (chronic myelogenous leukemia); experiment: MTS cytotoxicity assay, 72 h, K562; format: cell-based; details: Homo sapiens
Protocol: as §1, §2

[2] = test system: A549 (lung adenocarcinoma); experiment: MTS cytotoxicity assay, 72 h, A549; format: cell-based; details: Homo sapiens, A549, 72 h
Protocol: as §1, §2

MRC-5 lung fibroblasts = experiment: MTS cytotoxicity assay, 72 h, MRC-5 fibroblasts; format: cell-based, human; details: Homo sapiens, MRC5, 72 h, normal fibroblasts
Protocol: as §1, §2

K562-TAX = experiment: MTS cytotoxicity assay, 72 h, K562-TAX; format: cell-based
Protocol: as §1, §2

HCT 116 = experiment: MTS cytotoxicity assay, 72 h, HCT 116; format: cell-based; details: Homo sapiens, HCT-116, 72 h
Protocol: as §1, §2

CCRF-CEM = experiment: MTS cytotoxicity assay, 72 h, CCRF-CEM; format: cell-based; details: for IC50: Homo sapiens, CCRF-CEM, 72 h, MTS
Protocol: as §1, §2

U2OS = experiment: MTS cytotoxicity assay, 72 h, U2OS; format: cell-based; details: Homo sapiens
Protocol: as §1, §2

HCT116 p53–/– = experiment: MTS cytotoxicity assay, 72 h, HCT116 p53–/–; format: cell-based; details: Homo sapiens, HCT-116, 72 h
Protocol: as §1, §2

[3] = test system: BJ human skin fibroblasts; experiment: MTS cytotoxicity assay, 72 h, BJ fibroblasts; format: cell-based; details: Homo sapiens, Skin fibroblast, normal fibroblasts
Protocol: as §1, §2

[4] = CCRF-CEM vs average of BJ and MRC-5, full Table S1
[5] = IC50 of CCRF-CEM line vs average of both fibroblasts (BJ and MRC-5), Table 1

| SMILES | IC50 (CEM-DNR; full Table S1) [µM] | IC50 (DU-145 (prostate cancer); full Table S1) [µM] | IC50 ([1]; full Table S1) [µM] | IC50 ([2]; full Table S1) [µM] | IC50 (MRC-5 lung fibroblasts; full Table S1) [µM] | IC50 (K562-TAX; full Table S1) [µM] | IC50 (HCT 116; full Table S1) [µM] | SI (selectivity index) (CCRF-CEM; [4]) | IC50 (CCRF-CEM; full Table S1) [µM] | IC50 (U2OS; full Table S1) [µM] | IC50 (HCT116 p53–/–; full Table S1) [µM] | IC50 ([3]; full Table S1) [µM] | IC50 (CEM-DNR; Table 1) [µM] | IC50 (DU-145 (prostate cancer); Table 1) [µM] | IC50 ([1]; Table 1) [µM] | IC50 ([2]; Table 1) [µM] | IC50 (MRC-5 lung fibroblasts; Table 1) [µM] | IC50 (K562-TAX; Table 1) [µM] | IC50 (HCT 116; Table 1) [µM] | IC50 (CCRF-CEM; Table 1) [µM] | other results |
| --- | --- | --- | --- | --- | --- | --- | --- | --- | --- | --- | --- | --- | --- | --- | --- | --- | --- | --- | --- | --- | --- |
| C=C(C)[C@@H]1CC[C@]2(C(=O)OCc3ccccc3)CC[C@]3(C)C(CCC4[C@@]5(C)C=C(c6ccc(Cl)s6)C(=O)C(C)(C)C5CC[C@]43C)C12 (stereo partly drawn) [Compound 10e] | > 50 | > 50 | > 50 | > 50 | > 50 | > 50 | > 50 | > 1.0 | > 50 | > 50 | > 50 | > 50 |  |  |  |  |  |  |  |  |  |
| C=C(C)[C@@H]1CC[C@]2(C(=O)O)CC[C@]3(C)C(CCC4[C@@]5(C)C=C(c6cncnc6)C(=O)C(C)(C)C5CC[C@]43C)C12 (stereo partly drawn) [Compound 11i, 2-(Pyrimidin-5-yl)-3-oxolupa-1,20(29)-dien-28-oic acid] | 41.8 | 17.5 |  |  |  |  | 34.6 |  |  |  |  |  | 42 | 18 | > 50 | > 50 | > 50 | 25 | 35 | 19.7 | SI (selectivity index) (CCRF-CEM; [5]): >2.5; IC50 (U2OS; Table 1): > 50 µM; IC50 (HCT116 p53–/–; Table 1): 41 µM; IC50 ([3]; Table 1): > 50 µM |
| CC1(C)C(=O)C(c2ccncc2)=C[C@@]2(C)C1CC[C@]1(C)C2CCC2C3[C@H]4OC[C@@]3(CCC4(C)C)CC[C@]21C (stereo partly drawn) [Compound 4h, 2-(Pyridine-4-yl)-19β,28-epoxyolean-1-en-3-one] |  | 22.1 |  |  |  | 18.1 |  |  | 18.7 |  |  |  | 19 | 22 | > 50 | > 50 | > 50 | 18 | > 50 | 19 | SI (selectivity index) (CCRF-CEM; [5]): >2.7; IC50 (U2OS; Table 1): > 50 µM; IC50 (HCT116 p53–/–; Table 1): > 50 µM; IC50 ([3]; Table 1): > 50 µM |
| CC1(C)C(=O)C(c2ccsc2)=C[C@@]2(C)C1CC[C@]1(C)C2CCC2C3[C@H]4OC[C@@]3(CCC4(C)C)CC[C@]21C (stereo partly drawn) [Compound 4d, 2-(Thiophene-3-yl)-19β,28-epoxyolean-1-en-3-one] | > 50 | > 50 | > 50 | > 50 | > 50 | > 50 | > 50 | > 1.0 | > 50 | > 50 | > 50 | > 50 |  |  |  |  |  |  |  |  |  |
| C=C(C)[C@@H]1CC[C@]2(C(=O)O)CC[C@]3(C)C(CCC4[C@@]5(C)C=C(c6ccc7c(c6)OCCO7)C(=O)C(C)(C)C5CC[C@]43C)C12 (stereo partly drawn) [Compound 11j, 2-(1,4-Benzodioxan)-3-oxolupa-1,20(29)-dien-28-oic acid] |  |  |  | 13.5 | 27.8 | 16.5 | 22.1 |  |  | 21.9 | 20.9 |  | 24 | 7 | 7.5 | 14 | 28 | 17 | 22 | 4.9 | SI (selectivity index) (CCRF-CEM; [5]): >7.9; IC50 (U2OS; Table 1): 22 µM; IC50 (HCT116 p53–/–; Table 1): 21 µM; IC50 ([3]; Table 1): > 50 µM |
| C=C(C)[C@@H]1CC[C@]2(C(=O)OCc3ccccc3)CC[C@]3(C)C(CCC4[C@@]5(C)C=C(c6ccco6)C(=O)C(C)(C)C5CC[C@]43C)C12 (stereo partly drawn) [Compound 10a, Benzyl 2-(2-Furanyl)-3-oxolupa-1,20(29)-dien-28-oate] | > 50 | > 50 | > 50 | > 50 | > 50 | > 50 | > 50 | > 1.0 | > 50 | > 50 | > 50 | > 50 |  |  |  |  |  |  |  |  |  |
| CC1(C)C(=O)C(c2cccs2)=C[C@@]2(C)C1CC[C@]1(C)C2CCC2C3[C@H]4OC[C@@]3(CCC4(C)C)CC[C@]21C (stereo partly drawn) [Compound 4c, 2-(Thiophene-2-yl)-19β,28-epoxyolean-1-en-3-one] | > 50 | > 50 | > 50 | > 50 | > 50 | > 50 | > 50 | > 1.0 | > 50 | > 50 | > 50 | > 50 |  |  |  |  |  |  |  |  |  |
| C=C(C)[C@@H]1CC[C@]2(C(=O)OCc3ccccc3)CC[C@]3(C)C(CCC4[C@@]5(C)C=C(c6ccc7cn[nH]c7c6)C(=O)C(C)(C)C5CC[C@]43C)C12 (stereo partly drawn) [Compound 10n, Benzyl 2-(Indazol-6-yl)-3-oxolupa-1,20(29)-dien-28-oate] | > 50 | > 50 | > 50 | > 50 | > 50 | > 50 | > 50 | > 1.0 | > 50 | > 50 | > 50 | > 50 |  |  |  |  |  |  |  |  |  |
| C=C(C)[C@@H]1CC[C@]2(C(=O)OCc3ccccc3)CC[C@]3(C)C(CCC4[C@@]5(C)C=C(c6ccc7[nH]ccc7c6)C(=O)C(C)(C)C5CC[C@]43C)C12 (stereo partly drawn) [Compound 10m, Benzyl 2-(Indol-5-yl)-3-oxolupa-1,20(29)-dien-28-oate] | > 50 | > 50 | > 50 | > 50 | > 50 | > 50 | > 50 | > 1.0 | > 50 | > 50 | > 50 | > 50 |  |  |  |  |  |  |  |  |  |
| CC1(C)C(=O)C(c2cccnc2)=C[C@@]2(C)C1CC[C@]1(C)C2CCC2C3[C@H]4OC[C@@]3(CCC4(C)C)CC[C@]21C (stereo partly drawn) [Compound 4g, 2-(Pyridin-3-yl)-19β,28-epoxyolean-1-en-3-one] | 15.5 | 43.3 |  |  |  |  |  |  | 25.4 |  |  |  | 16 | 43 | > 50 | > 50 | > 50 | 19 | > 50 | 25 | SI (selectivity index) (CCRF-CEM; [5]): >2.0; IC50 (U2OS; Table 1): > 50 µM; IC50 (HCT116 p53–/–; Table 1): > 50 µM; IC50 ([3]; Table 1): > 50 µM |
| C=C(C)[C@@H]1CC[C@]2(C(=O)OCc3ccccc3)CC[C@]3(C)C(CCC4[C@@]5(C)C=C(c6ccsc6)C(=O)C(C)(C)C5CC[C@]43C)C12 (stereo partly drawn) [Compound 10d, Benzyl 2-(3-Thiophenyl)-3-oxolupa-1,20(29)-dien-28-oate] | > 50 | > 50 | > 50 | > 50 | > 50 | > 50 | > 50 | > 1.0 | > 50 | > 50 | > 50 | > 50 |  |  |  |  |  |  |  |  |  |
